Measured values published in patent US20180214428A1, “3-(1H-INDOL-2-YL)-1H-PYRAZOLO[3,4-B]PYRIDINES AND THERAPEUTIC USES THEREOF” (Samumed, LLC, priority 2015, published 2018).

What was measured:
SW480 colon cancer cells = test: Cell viability assay (CellTiter-Blue) in SW480 colon cancer cells; assay type: cell-based, human; conditions: Homo sapiens, 96 h, four days, CellTiter-Blue
Experimental: Representative compounds were screened using the following assay procedure to assess the effect on cell viability as described below.
Each compound was dissolved in DMSO as a 10 mM stock and used to prepare compound source plates. Serial dilution (1:3, 8-point dose-response curves from 10 μM to 0.0045 μM) and compound transfer was performed using the ECHO 550 (Labcyte, Sunnyvale, Calif.) into 96-well clear bottom, black-walled plates (Corning-Costar).
Approximately 2×10^3 SW480 colon cancer cells were seeded into each well and allowed to incubate in the presence or absence of compound for four days at 37° C./5% CO2. Eight replicates of DMSO-treated cells served as controls and cells treated with compound were performed in duplicate.
After incubation, 20 μL of CellTiter-Blue (Promega) was added to each well allowed to incubate for approximately 3 hours. This reagent was a buffered solution which contains resazurin, metabolically active cells were able to reduce rezarurin (blue) into resorufin (pink) which was highly fluorescent. This measured fluorescence was used as a readout for cell viability.
After incubation, the plates were read at Ex 560 nm Em 590 nm (Cytation 3, BioTek). Dose-response curves were generated and EC50 concentration values were calculated using non-linear regression curve fit in the GraphPad Prism (San Diego, Calif.) or Dotmatics' Studies Software (Bishops Stortford, UK). For EC50 of >10 μM, the percent inhibition at 10 μM is provided.

IL-6 = IL-6 inhibition in LPS-stimulated THP-1 monocytes (HTRF); assay type: cell-based, human; conditions: Homo sapiens; THP-1 cells, 500 ng/mL LPS, 22 h, HTRF IL-6 readout; 10-point dose-response from 10 μM
Experimental: Human monocyte cell line (THP-1 cells; Catalog # TIB-202, ATCC, Manassas, Va.) were cultured in Roswell Park Memorial Institute (RPMI) 1640 Medium (Catalog #21870-100, Buffalo, N.Y.) with 1% L-glutamine, 1% HEPES, 1% Sodium Pyruvate, 2% Sodium Bicarbonate supplemented with 100 units/mL penicillin, 50 μg/mL streptomycin, 2-mercaptoethanol (0.05 mM) [basal medium] and 10% fetal bovine serum (Catalog #16140089, Life Technologies, Carlsbad, Calif.) at 37° C. and 5% CO2.
THP-1 cells were cultured in basal media with 1% FBS for 24 hours before the start of the assay. Each compound was dissolved in DMSO as a 10 mM stock and used to prepare compound source plates. Serial dilution (1:3, 10-point dose-response curves starting from 10 μM) and compound transfer was performed using the ECHO 550 (Labcyte, Sunnyvale, Calif.) into 384-well white low volume assay plates (Greiner Bio-One) with appropriate DMSO backfill for a final DMSO concentration of 0.1%. THP-1 cells were plated at 5000 cells/well in the 384-well plates and incubated at 37° C. for 2 h. 500 ng/mL of LPS was added after 2 hours and cells were incubated for another 22 hours at 37° C. Plates were spun in a centrifuge for 1 minute at […] and a mixture of anti-IL6 XL665, and anti-IL6 Cryptate diluted in reconstitution buffer (Cisbio Inc.) was added to each well. Following incubation for 3 hrs at room temperature, Homogeneous Time-Resolved Fluorescence (HTRF) was measured using the Envision (Perkin Elmer) at 665 nm and […]. The ratio of fluorescence at 665 nm to 620 nm was used as a readout for IL6 quantification. All samples were processed in duplicate. Readings were normalized to DMSO treated cells and normalized activities were utilized for EC50 calculations using the dose-response log (inhibitor) vs. response variable slope (four parameters) nonlinear regression feature available in GraphPad Prism 5.0 (or Dotmatics). For EC50 of >10 μM, the percent inhibition at 10 μM is provided.

[1] = system: primary human fibroblasts derived from IPF patients (LL29 cells); test: Inhibition of the fibrotic process: αSMA staining in TGF-β1 treated LL29 fibroblasts; assay type: cell-based; conditions: Homo sapiens, Fibroblast, 96 h, TGF-β1 20 ng/mL, 4 days, % αSMA positive cells
From the text: Representative compounds were screened using primary human fibroblasts (derived from IPF patients) treated with TGF-β1 to determine their ability to inhibit the fibrotic process.
Primary human fibroblasts derived from IPF patients (LL29 cells) [^1Xiaoqiu Liu, et. al., “Fibrotic Lung Fibroblasts Show Blunted Inhibition by cAMP Due to Deficient cAMP Response Element-Binding Protein Phosphorylation”, Journal of Pharmacology and Experimental Therapeutics (2005), 315(2), 678-687; ^2Watts, K. L., et. al., “RhoA signaling modulates cyclin D1 expression in human lung fibroblasts; implications for idiopathic pulmonary fibrosis”, Respiratory Research (2006), 7(1), 88] were obtained from American Type Culture Collection (ATCC) and expanded in F12 medium supplemented with 15% Fetal Bovine Serum and Penicillin/Streptomycin.
Each compound was dissolved in DMSO as a 10 mM stock and used to prepare compound source plates. Serial dilution (1:2, 11-point dose-response curves from 10 μM to […]) and compound transfer was performed using the ECHO 550 (Labcyte, Sunnyvale, Calif.) into 384-well clear bottom assay plates (Greiner Bio-One) with appropriate DMSO backfill for a final DMSO concentration of 0.1%. LL29 cells are plated at 1,500 cells/well in 80 μL/well F12 medium supplemented with 1% Fetal Bovine Serum. One hour after addition of the cells, TGF-01 (Peprotech; 20 ng/mL) was added to the plates to induce fibrosis (ref. 1 and 2 above). Wells treated with TGF-β1 and containing DMSO were used as controls. Cells were incubated at 37° C. and 5% CO2 for 4 days. Following incubation for 4 days, SYTOX green nucleic acid stain (Life Technologies [Thermo Fisher Scientific]) was added to the wells at a final concentration of 1 μM and incubated at room temperature for 30 min. Cells were then fixed using 4% formaldehyde (Electron Microscopy Sciences), washed 3 times with PBS followed by blocking and permeabilization using 3% Bovine Serum Albumin (BSA; Sigma) and 0.3% Triton X-100 (Sigma) in PBS. Cells were then stained with antibody specific to α-smooth muscle actin (aSMA; Abcam) (ref. 1 and 2 above) in 3% Bovine Serum Albumin (BSA; Sigma) and 0.3% Triton X-100 (Sigma) in PBS, and incubated overnight at 4° C. Cells were then washed 3 times with PBS, followed by incubation with Alexa Flor-647 conjugated secondary antibody (Life Technologies [Thermo Fisher Scientific]) and DAPI at room temperature for 1 hour. Cells were then washed 3 times with PBS and plates were sealed for imaging. αSMA staining was imaged by excitation at 630 nm and emission at 665 nm and quantified using the Compartmental Analysis program on the CellInsight CX5 (Thermo Scientific). Dead or apoptotic cells were excluded from analysis based on positive SYTOX green staining. % of total cells positive for aSMA were counted in each well and normalized to the average of 11 wells treated with TGF-01 on the same plate using Dotmatics' Studies Software. The normalized averages (fold change over untreated) of 3 replicate wells for each compound concentration were used to create dose-responses curves and EC50 values were calculated using non-linear regression curve fit in the Dotmatics' Studies Software. For EC50 of >10 μM, the percent inhibition at 10 μM is provided.

[2] = system: Wnt activity (Sp5-Luc reporter gene, SW480 colon carcinoma cells); test: Screening assay for Wnt activity: Sp5-Luc reporter gene assay in SW480 cells; assay type: cell-based, human; conditions: Homo sapiens, overnight incubation
From the text: The screening assay for Wnt activity is described as follows. Reporter cell lines can be generated by stably transducing cancer cell lines (e.g., colon cancer) or primary cells (e.g., IEC-6 intestinal cells) with a lentiviral construct that includes a Wnt-responsive promoter driving expression of the firefly luciferase gene.
SW480 colon carcinoma cells were transduced with a lentiviral vector expressing luciferase with a human Sp5 promoter consisting of a sequence of eight TCF/LEF binding sites. SW480 cells stably expressing the Sp5-Luc reporter gene and a hygromycin resistance gene were selected by treatment with 150 μg/mL of hygromycin for 7 days. These stably transduced SW480 cells were expanded in cell culture and used for all further screening activities. Each compound was dissolved in DMSO as a 10 mM stock and used to prepare compound source plates. Serial dilution (1:3, 10-point dose-response curves starting from 10 μM) and compound transfer was performed using the ECHO 550 (Labcyte, Sunnyvale, Calif.) into 384-well white solid bottom assay plates (Greiner Bio-One) with appropriate DMSO backfill for a final DMSO concentration of 0.1%. For Sp5-Luc reporter gene assays, the cells were plated at 4,000 cells/well in 384-well plates with medium containing 1% fetal bovine serum and incubated overnight at 37° C. and 5% CO2. Following incubation, 20 μl of BrightGlo luminescence reagent (Promega) was added to each well of the 384-well assay plates. The plates were placed on an orbital shaker for 2 min and then luminescence was quantified using the Envision (Perkin Elmer) plate reader. Readings were normalized to DMSO only treated cells, and normalized activities were utilized for EC50 calculations using the dose-response log (inhibitor) vs. response variable slope (four parameters) nonlinear regression feature available in GraphPad Prism 5.0 (or Dotmatics). For EC50 of >10 μM, the percent inhibition at 10 μM is provided.

Compound	EC50 (SW480 colon cancer cells) [µM]	EC50 (IL-6) [µM]	EC50 [1] [µM]	EC50 [2] [µM]
CC(C)(C)C(=O)Nc1cncc(-c2cnc3[nH]nc(-c4cc5c(-c6cc(F)cc(CNS(C)(=O)=O)c6)cccc5[nH]4)c3c2)c1 [Compound 458, N-(5-(3-(4-(3-Fluoro-5-(methylsulfonamidomethyl)phenyl)-1H-indol-2-yl)-1H-pyrazolo[3,4-b]pyridin-5-yl)pyridin-3-yl)pivalamide]	1.06	0.146	1.2	0.485
CN(C)Cc1cncc(-c2cnc3[nH]nc(-c4cc5c(-c6cccc(F)c6)cccc5[nH]4)c3c2)c1 [Compound 10, 1-(5-(3-(4-(3-Fluorophenyl)-1H-indol-2-yl)-1H-pyrazolo[3,4-b]pyridin-5-yl)pyridin-3-yl)-N,N-dimethylmethanamine]	3.44	1.56	4.39	1.05
Nc1cncc(-c2cnc3[nH]nc(-c4cc5c(N6CCCCC6)cccc5[nH]4)c3c2)c1 [Compound 147, 5-(3-(4-(Piperidin-1-yl)-1H-indol-2-yl)-1H-pyrazolo[3,4-b]pyridin-5-yl) pyridin-3-amine]	1.05	0.213	0.62	0.154
CS(=O)(=O)NCc1cc(F)cc(-c2cccc3[nH]c(-c4n[nH]c5ncc(-c6cncc(NC(=O)C7CC7)c6)cc45)cc23)c1 [Compound 470, N-(5-(3-(4-(3-Fluoro-5-(methylsulfonamidomethyl)phenyl)-1H-indol-2-yl)-1H-pyrazolo[3,4-b]pyridin-5-yl)pyridin-3-yl)cyclopropanecarboxamide]	1.06	0.541	1.33	0.484
CC(C)(C)C(=O)Nc1cncc(-c2cnc3[nH]nc(-c4cc5ccccc5[nH]4)c3c2)c1 [Compound 235, N-(5-(3-(1H-Indol-2-yl)-1H-pyrazolo[3,4-b]pyridin-5-yl)pyridin-3-yl) pivalamide]	3.46	0.35	0.282	0.732
CC(C)Nc1cncc(-c2cnc3[nH]nc(-c4cc5c(-c6ccccc6F)cccc5[nH]4)c3c2)c1 [Compound 57, 5-(3-(4-(2-Fluorophenyl)-1H-indol-2-yl)-1H-pyrazolo[3,4-b]pyridin-5-yl)-N-isopropylpyridin-3-amine]	1.82	0.753	0.411	0.371
O=C(Nc1cncc(-c2cnc3[nH]nc(-c4cc5ccccc5[nH]4)c3c2)c1)C1CCC1 [Compound 247, N-(5-(3-(1H-Indol-2-yl)-1H-pyrazolo[3,4-b]pyridin-5-yl)pyridin-3-yl) cyclobutanecarboxamide]	1.36	0.1	0.067	0.53
CN(C)c1cncc(-c2cnc3[nH]nc(-c4cc5ncccc5[nH]4)c3c2)c1 [Compound 485, 5-(3-(1H-Pyrrolo[3,2-b]pyridin-2-yl)-1H-pyrazolo[3,4-b]pyridin-5-yl)-N,N-dimethylpyridin-3-amine]	3.44	7.4	2.79	3.81
Cc1ccncc1-c1cnc2[nH]nc(-c3cc4c(N5CCN(C)CC5)cccc4[nH]3)c2c1 [Compound 205, 3-(4-(4-Methylpiperazin-1-yl)-1H-indol-2-yl)-5-(4-methylpyridin-3-yl)-1H-pyrazolo[3,4-b]pyridine]	3.27	0.477	2.56	3.42
O=C(Nc1cncc(-c2cnc3[nH]nc(-c4cc5c(N6CCCCC6)cccc5[nH]4)c3c2)c1)C1CC1 [Compound 164, N-(5-(3-(4-(piperidin-1-yl)-1H-indol-2-yl)-1H-pyrazolo[3,4-b]pyridin-5-yl)pyridin-3-yl)cyclopropanecarboxamide]	9.94	1.19	4.33	1.08
